Drawing on PubChem BioAssay AID1205 (EPA DSSTox, 2008), this text covers outcome for 48 compounds.

The source made the active and inactive calls.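 How the source made its calls: active means tumour findings in long-term animal cancer tests in more than one sex, species or organ; inactive means no tumour finding and more than one negative test.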

A short description of this series: DSSTox (CPDBAS) Carcinogenic Potency Database Summary MultiCellCall Results. Particulars: animal carcinogenicity bioassays, multi-cell call summary. In short, it runs like this: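 Summary call drawn from chronic long-term cancer bioassays in rats, mice, hamsters, dogs and nonhuman primates, using the most positive result per sex-species. Score: multispecies=50, multisex=30, multisite=20, summed for combinations.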
As to `COc1cc(-c2ccc(N=C=O)c(OC)c2)ccc1N=C=O`, the outcome was “active; multisite active; multisex active”.
Under `Oc1ccc2c(c1)OCO2` stands “active; multisex active; multispecies active”; under `CC1CCC(C(C)C)C(O)C1` (stereo not drawn), “inactive; multisex inactive; multispecies inactive”; under `CNC(=O)Oc1cc(C)c(N(C)C)c(C)c1`, “inactive; multisex inactive; multispecies inactive”.
Next, `CCOC(=O)CC(SP(=O)(OC)OC)C(=O)OCC` (stereo not drawn): “inactive; multisex inactive; multispecies inactive”; `CC1CO1` (stereo not drawn): “active; multisite active; multisex active; multispecies active”; `c1ccccc1`: “active; multisite active; multisex active; multispecies active”.
On to `CCNN`, for which the outcome is “active; multisite active; multisex active”.
Under `CCOc1ccc(NC(C)=O)cc1` stands “active; multisite active; multisex active; multispecies active”; under `N=c1ccn2c(n1)O[C@H]1[C@H](O)[C@@H](CO)O[C@H]12`, “inactive; multisex inactive”; under `C1CCNCC1`, “inactive; multisex inactive”.
Next, `CC(N)=O`: “active; multisite active; multisex active; multispecies active”; `Clc1ccc2c(c1)C(c1ccccc1)=NCc1nncn1-2`: “inactive; multisex inactive; multispecies inactive”; `N#Cc1c(Cl)c(Cl)c(Cl)c(C#N)c1Cl`: “active; multisex active”.
Under `O=C1C=CC(=O)C=C1` stands “active; multisex active”.
In the case of `ClCOCCl`, the outcome is “active; multisite active; multisex active; multispecies active”.
Under `[N-]=[N+]=[N-]` stands “inactive; multisex inactive”; under `Nc1ccc(/C=C/c2ccc(N)cc2S(=O)(=O)O)c(S(=O)(=O)O)c1`, “inactive; multisex inactive; multispecies inactive”.
Under `c1ccc(OCC2CO2)cc1` (stereo not drawn) stands “active; multisex active”; under `COc1ccc(CN(CCN(C)C)c2ccccn2)cc1`, “active; multisex active”.
Under `O=[N+]([O-])c1cc([As](=O)(O)O)ccc1O` stands “inactive; multisex inactive; multispecies inactive”; under `C=CC(=O)O`, “inactive; multisex inactive”.
Regarding `Cc1cccc(Nc2cc(Cl)nc(SCC(=O)O)n2)c1C`, the outcome is “active; multispecies active”.
With `O=P(OC(CCl)CCl)(OC(CCl)CCl)OC(CCl)CCl`, the outcome was “active; multisite active; multisex active”.
Turning to `O=NN(CC(=O)O)CC(=O)O`, the outcome was “inactive; multisex inactive”.
Under `C[C@]12CCC(=O)C=C1CC[C@@H]1[C@@H]2[C@@H](O)C[C@@]2(C)[C@H]1CC[C@]2(O)C(=O)CO` stands “inactive; multisex inactive”; under `CCO`, “active; multisite active”.
Under `ClC(Cl)Br` stands “active; multisite active; multisex active; multispecies active”; under `ClC(Cl)(Cl)c1ccccc1`, “active; multisite active”; under `Cc1cccc2ccccc12`, “inactive; multisex inactive”.
Next, `COc1ccccc1N`: “active; multisite active; multisex active; multispecies active”; `O=S(=O)([O-])[O-].[O]=[V+2]`: “inactive; multisex inactive; multispecies inactive”; `C=CC(N)=O`: “active; multisite active; multisex active”.
Consider `O=[N+]([O-])c1ccccc1`, for which the outcome was “active; multisite active; multisex active; multispecies active”.
As to `Clc1cc2c(c(Cl)c1Cl)Oc1c(cc(Cl)c(Cl)c1Cl)O2`, the outcome is “active; multisex active; multispecies active”.
As to `Clc1cc2c(cc1Cl)Oc1cc(Cl)c(Cl)cc1O2`, the outcome is “active; multisite active; multisex active; multispecies active”.
Next, `Nc1c(Cl)c(Cl)nc(C(=O)O)c1Cl`: “inactive; multisex inactive; multispecies inactive”; `Cc1ccc(/C(=C\CN2CCCC2)c2ccccn2)cc1`: “inactive; multisex inactive; multispecies inactive”.
In the case of `O=NN1CCCN(N=O)CC1`, the outcome is “active; multisite active”.
Under `CC(C)CCC[C@@H](C)[C@H]1CC[C@H]2[C@@H]3CC=C4C[C@@H](OC(=O)Cc5ccc(N(CCCl)CCCl)cc5)CC[C@]4(C)[C@H]3CC[C@]12C` stands “active; multisite active; multisex active; multispecies active”; under `COc1ccc(O)c(C(C)(C)C)c1`, “active; multisex active; multispecies active”; under `Cc1cccc(Nc2cc(Cl)nc(SCC(=O)NCCO)n2)c1C`, “active; multisex active; multispecies active”.
Under `Cc1ccc(C)c(N)c1` stands “active; multisite active; multisex active; multispecies active”; under `O=C1CCCO1`, “inactive; multisex inactive; multispecies inactive”.
Consider `Clc1cccc(-c2ccc(Cl)c(Cl)c2Cl)c1Cl`, for which the outcome is “active; multisite active; multisex active; multispecies active”.
`NC(N)=Nc1nc(CSCCNc2nsnc2N)cs1`: the outcome was “active; multisex active”.
Next, `CCCC[C@H](C)[C@@H](OC(=O)C[C@H](CC(=O)O)C(=O)O)[C@@H](C[C@H](C)C[C@@H](O)CCCC[C@@H](O)C[C@H](O)[C@H](C)N)OC(=O)C[C@H](CC(=O)O)C(=O)O`: “active; multisite active; multisex active; multispecies active”; `CC[C@H](C)C(=O)O[C@H]1C[C@@H](C)C=C2C=C[C@H](C)[C@H](CC[C@@H]3C[C@@H](O)CC(=O)O3)[C@H]21`: “active; multisite active; multisex active”.
